According to publication PMC10870114 (Clinical Cancer Research, 2023):

Test: Plasma pharmacokinetics on fraction day
Type: in vivo, human
Conditions: plasma, patients given peposertib

Oc1ccc(C(O)c2cc(-c3ncnc4cc(N5CCOCC5)ccc34)c(F)cc2Cl)nn1 (centres unmarked) [M467]
Average exposure proportion compared with peposertib, AUC: < 25%
Average exposure proportion compared with peposertib, Cmax: < 16%
